Results on five molecules are retold here after ChEMBL document CHEMBL1201862, “PubChem BioAssay data set” (2004).

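These data come from cells grown in 96-well plates and exposed to compound for 48 hours at five concentrations. GI50 marks 50% less growth.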 Active and inactive are the calls of the source. Rule as the data show it: active = GI50 up to about 1.1 µM and inactive = higher. Bounds are passed on as bounds.

Assay in all cases: growth of human tumour cells (NCI), 48 h
In assay [1] the test system is DMS-114.
The subject of assay [2] is EKVX.
For assay [3], the system named is HCC 2998.
Assay [4] deals with HOP-18.
For assay [5], the system named is HOP-92.
The subject of assay [6] is KM12.
The test system of assay [7] is M19-MEL.
The subject of assay [8] is Malme-3M.
Assay [9] relates to NCI-H522.
The test system of assay [10] is NCI/ADR-RES.
Assay [11] has as its system SK-MEL-5.
Assay [12] has as its system SW-620.
Assay [13] concerns BT-549.
The test system of assay [14] is Hs-578T.
Assay [15] relates to MDA-MB-231.
Assay [16] has as its system MDA-MB-435.
Assay [17] relates to MDA-N.
The subject of assay [18] is PC-3.
The test system of assay [19] is SR.
Assay [20] deals with T47D.

Consider `N/C(=N\O)N/N=C/c1cc2c(cc1Cl)OCO2`, for which the GI50 is > 100 µM (inactive) in assay [1]; 60.4 µM (inactive) in assay [2]; 26 µM (inactive) in assay [3]; 56.2 µM (inactive) in assay [4]; 28.3 µM (inactive) in assay [5]; 29.5 µM (inactive) in assay [6]. In addition, the GI50 is > 56.9 µM (inactive) in assay [7]; > 100 µM (inactive) in [8]; 16 µM (inactive) in [9]; 18 µM (inactive) in [10]; 24.2 µM (inactive) in [11]; 41.8 µM (inactive) in [12].
For `O=C(CCCN1CCC(C(O)c2ccc(F)cc2)CC1)c1ccc(F)cc1` (stereo unspecified), the GI50 in assay [13] was 45.4 µM (inactive); in [1], 49.7 µM (inactive); in assay [2] it was 62.1 µM (inactive); in assay [3], 41.1 µM (inactive); in [4], 66.8 µM (inactive); in assay [5], 20.6 µM (inactive). Further, the GI50 in assay [14] was 46.1 µM (inactive); in assay [6], 56.6 µM (inactive); in [7], 59.6 µM (inactive); in assay [15], 39.8 µM (inactive); in assay [16] it was 57 µM (inactive); in assay [17] it was 61 µM (inactive). Further, the GI50 in assay [8] was 55.3 µM (inactive); in assay [9], 66.8 µM (inactive); in [10], 66.5 µM (inactive); in assay [18], 47.1 µM (inactive); in assay [11], 46.7 µM (inactive); in [19] it was 69.8 µM (inactive). For the same molecule, the GI50 in assay [12] was 61.8 µM (inactive); in assay [20], 56.1 µM (inactive).
With `Cc1c2cc[n+](C)cc2c(C)c2c1[nH]c1ccccc12`, the GI50 in [13] was 2.38 µM (inactive); in assay [1], 0.315 µM (active); in assay [2] it was 0.834 µM (active); in assay [3] it was 2.28 µM (inactive); in [4] it was 2.91 µM (inactive); in [5], 1.56 µM (inactive). For the same molecule, the GI50 in assay [6] was 0.429 µM (active); in [7] it was 0.718 µM (active); in assay [16], 9.02 µM (inactive); in assay [17], 1.92 µM (inactive); in assay [8] it was 0.953 µM (active); in [9] it was 0.774 µM (active). Further, the GI50 was 4.83 µM (inactive) in assay [18]; 1.28 µM (inactive) in assay [11]; 0.497 µM (active) in [19]; 0.973 µM (active) in assay [12]; 0.157 µM (active) in assay [20].
Take `Cn1c(=O)c2nc3sc4c(n3c2n(C)c1=O)C(=O)c1ccccc1C4=O`: the GI50 in [13] was > 44.7 µM (inactive); in [1] it was > 100 µM (inactive); in [2] it was > 100 µM (inactive); in [3] it was > 80.2 µM (inactive); in assay [4], 0.433 µM (active); in assay [5] it was 16.5 µM (inactive). In addition, the GI50 in [14] was 23.3 µM (inactive); in assay [6], > 100 µM (inactive); in assay [7], > 86.7 µM (inactive); in assay [15], > 42.4 µM (inactive); in assay [16] it was > 28.4 µM (inactive); in assay [17], > 64.3 µM (inactive). Moreover, the GI50 in assay [8] was > 90.2 µM (inactive); in assay [9] it was 11 µM (inactive); in assay [10], 19 µM (inactive); in [18], > 42 µM (inactive); in assay [11] it was > 75 µM (inactive); in assay [19], 19.5 µM (inactive). The results for the GI50 in [12] and in assay [20] were > 66.5 µM (inactive) and 0.893 µM (active), respectively.
Turning to `Cc1c2c(cc3c1[nH]c1ccccc13)C(c1ccc(Cl)cc1)=NCC2`, the GI50 in assay [1] is 0.347 µM (active); in assay [2], 0.274 µM (active); in [3], 0.991 µM (active); in [4] it was 3.99 µM (inactive); in [5], 0.716 µM (active); in assay [6], 0.274 µM (active). The GI50 is 0.726 µM (active) in assay [7]; 1.83 µM (inactive) in assay [8]; 0.288 µM (active) in [9]; 0.264 µM (active) in assay [10]; 0.343 µM (active) in assay [11]; 0.356 µM (active) in [12].
